Assays:
Experiment in all cases: relative viability (nuclei count vs DMSO), 5 days (fraction); higher = more cells survive
Bexarotene + Alpelisib = compound: C=C(c1ccc(C(=O)O)cc1)c1cc2c(cc1C)C(C)(C)CCC2(C)C [Bexarotene] + Cc1nc(NC(=O)N2CCC[C@H]2C(N)=O)sc1-c1ccnc(C(C)(C)C(F)(F)F)c1 [Alpelisib] (partner 2 µM)
In short: (§1)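 Relative viability is defined as nuclei in treated wells over nuclei in vehicle wells. Duplicate plates were run and medians reported. Lung cancer cell lines in 1536-well plates were dosed by pin tool one day after seeding, with one drug or with a fixed anchor-drug dose plus five library-drug doses (not always all listed) in √10 steps, and nuclei were counted after 5 days.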

Bexarotene + Palbociclib = compound: C=C(c1ccc(C(=O)O)cc1)c1cc2c(cc1C)C(C)(C)CCC2(C)C [Bexarotene] + CC(=O)c1c(C)c2cnc(Nc3ccc(N4CCNCC4)cn3)nc2n(C2CCCC2)c1=O [Palbociclib] (partner 0.5 µM)
In short: as §1

Bexarotene + Olaparib = compound: C=C(c1ccc(C(=O)O)cc1)c1cc2c(cc1C)C(C)(C)CCC2(C)C [Bexarotene] + O=C(c1cc(Cc2n[nH]c(=O)c3ccccc23)ccc1F)N1CCN(C(=O)C2CC2)CC1 [Olaparib] (partner 8 µM)
In short: as §1

Bexarotene + Pemetrexed = compound: C=C(c1ccc(C(=O)O)cc1)c1cc2c(cc1C)C(C)(C)CCC2(C)C [Bexarotene] + Nc1nc2[nH]cc(CCc3ccc(C(=O)N[C@@H](CCC(=O)O)C(=O)O)cc3)c2c(=O)[nH]1 [Pemetrexed] (partner 0.2 µM)
In short: as §1

Cell Line | relative viability (Bexarotene + Alpelisib; first compound 0.08 µM) | relative viability (Bexarotene + Alpelisib; first compound 0.253 µM) | relative viability (Bexarotene + Alpelisib; first compound 0.8 µM) | relative viability (Bexarotene + Alpelisib; first compound 2.53 µM) | relative viability (Bexarotene + Alpelisib; first compound 8 µM) | relative viability (Bexarotene + Palbociclib; first compound 0.08 µM) | relative viability (Bexarotene + Palbociclib; first compound 0.253 µM) | relative viability (Bexarotene + Palbociclib; first compound 0.8 µM) | relative viability (Bexarotene + Palbociclib; first compound 2.53 µM) | relative viability (Bexarotene + Palbociclib; first compound 8 µM) | relative viability (Bexarotene + Olaparib; first compound 0.08 µM) | relative viability (Bexarotene + Olaparib; first compound 0.253 µM) | relative viability (Bexarotene + Olaparib; first compound 0.8 µM) | relative viability (Bexarotene + Olaparib; first compound 2.53 µM) | relative viability (Bexarotene + Olaparib; first compound 8 µM) | relative viability (Bexarotene + Pemetrexed; first compound 0.08 µM) | relative viability (Bexarotene + Pemetrexed; first compound 0.253 µM) | relative viability (Bexarotene + Pemetrexed; first compound 0.8 µM) | relative viability (Bexarotene + Pemetrexed; first compound 2.53 µM) | relative viability (Bexarotene + Pemetrexed; first compound 8 µM)
NCI-H2085 | 0.892 | 0.924 | 0.873 | 0.855 | 0.824 | 0.411 | 0.434 | 0.415 | 0.374 | 0.383 | 0.691 | 0.709 | 0.693 | 0.676 | 0.694 | 0.832 | 0.808 | 0.753 | 0.751 | 0.74
NCI-H2087 | 1.27 | 1.11 | 1.08 | 0.997 | 1.05 | 0.254 | 0.238 | 0.198 | 0.274 | 0.226 | 0.689 | 0.72 | 0.582 | 0.481 | 0.58 | 0.681 | 0.743 | 0.696 | 0.652 | 0.549
NCI-H2126 | 0.8 | 0.81 | 0.698 | 0.826 | 0.847 | 0.354 | 0.346 | 0.325 | 0.331 | 0.365 | 0.927 | 0.912 | 0.855 | 0.837 | 0.816 | 0.822 | 0.679 | 0.621 | 0.742 | 0.636
NCI-H2170 | 0.762 | 0.777 | 0.782 | 0.759 | 0.66 | 0.343 | 0.403 | 0.324 | 0.325 | 0.331 | 0.576 | 0.645 | 0.574 | 0.609 | 0.562 | 0.265 | 0.272 | 0.254 | 0.258 | 0.27
NCI-H2228 | 0.669 | 0.722 | 0.609 | 0.629 | 0.499 | 0.968 | 0.603 | 0.707 | 0.702 | 0.699 | 0.825 | 0.799 | 0.631 | 0.591 | 0.492 | 0.36 | 0.358 | 0.365 | 0.212 | 0.376
NCI-H2347 | 1.05 | 1.03 | 0.748 | 1.01 | 1.11 | 0.465 | 0.413 | 0.343 | 0.368 | 0.426 | 0.583 | 0.614 | 0.552 | 0.42 | 0.647 | 0.484 | 0.424 | 0.399 | 0.445 | 0.462
NCI-H2405 | 0.935 | 0.915 | 0.52 | 0.806 | 0.864 | 0.541 | 0.557 | 0.44 | 0.565 | 0.508 | 0.93 | 0.849 | 0.7 | 0.852 | 0.83 | 1.25 | 1.09 | 0.939 | 0.977 | 1.07

Reference: the supplement of paper PMC10307832
